Test results reported in patent US20240245770A1, “COMPOSITIONS AND METHODS FOR TREATING NEUROMUSCULAR DISORDERS” (The Regents of the University of California, priority 2019, published 2024).

Key:
[1] = tested on: Oral squamous carcinoma cells (OSCCs) and Oral squamous stem cell carcinoma (OSCSCs); assay: NAC blocking of CDDP mediated cell death (PI staining, flow cytometry); assay type: cell-based, human; settings: OSCC compared with OSCSCs, 24 hours
Protocol: Testing and selection of the best NAC to be used in ALS treatment. […] Afterwards OSCCs and OSCSCs were detached, and the viability of cells was determined after PI staining followed by flow cytometric analysis. In this figure Forward and Side Scatters (Fs/ss) were assessed since decrease in the Fs/ss is seen in cells undergoing cell death.
Testing and selection of the best NAC to be used in ALS treatment. […] Afterwards OSCCs and OSCSCs were detached, and the viability of cells was determined after PI staining followed by flow cytometric analysis. In this figure the percentage of PI stained cells were assessed.

[2] = tested on: Dental Pulp Stromal Cells (DPSCs); assay: NAC blocking of H2O2 mediated cell death in DPSCs; assay type: cell-based, human; settings: NAC 20 mM, 24 hours, FIG. 67
Protocol: Testing and selection of the best NAC to be used in ALS treatment. […] Afterwards DPSCs were detached, and the viability of cells was determined after PI staining followed by flow cytometric analysis. In this figure the decrease in FS/ss and the percentage of PI stained cells were assessed.

OSCSCs = assay: NAC blocking of H2O2 mediated cell death in OSCSCs; assay type: cell-based, human; settings: NAC 20 mM, 24 hours, FIG. 68
ALS = settings: cited from earlier work

[NH2][Pt]([NH2])([Cl])[Cl] [CDDP, Cisplatin]
cell death induced by CDDP [1]: induces more of the cell death in OSCC than in OSCSCs

CC(=O)N[C@@H](CS)C(=O)O [NAC-M]
H2O2 mediated cell death (Fs/ss and PI positive cells) [2]: able to inhibit H2O2 mediated cell death effectively
H2O2 mediated cell death (Fs/ss and PI positive cells) (OSCSCs): able to inhibit H2O2 mediated cell death effectively

Nc1nc2ccc(OC(F)(F)F)cc2s1 [Riluzole]
extension of life (ALS): about two to three
